This is an account of results in patent US20250206759A1, “FUSED RING COMPOUND, PHARMACEUTICAL COMPOSITION CONTAINING SAME, AND USE OF FUSED RING COMPOUND” (CHENGDU HYPERWAY PHARMACEUTICALS CO., LTD., priority 2022, published 2025).

Read-outs that look alike come from different tables or passages of the source.

Data set [1] deals with KRas G12D-mediated ERK phosphorylation. The experiment in a line: Inhibition of KRas G12D-mediated ERK phosphorylation in AGS cells. Conditions: read-out: AGS-pERK IC50. Format: cell-based. How it is done: Day 1: AGS cells were seeded into 384-well cell culture plates and cultured overnight in a 37° C., 5% CO2 incubator.
Day 2: The compounds were added to the plates using Echo550 and incubated for 3 h in a 37° C., 5% CO2 incubator. Then cells were fixed with paraformaldehyde, permeated with methanol, and blocked with the blocking solution. Finally, a mixed solution of primary antibodies (rabbit anti pERK, mouse anti GAPDH) was added, and the mixture was incubated at 4° C. overnight.
Day 3: The mixed solution of primary antibodies was discarded, and a mixed solution of secondary antibodies (goat anti rabbit 800CW, goat anti mouse 680RD) was added. The mixture was incubated at room temperature in the dark. Finally, the cell culture plate was washed with PBST, and then inverted for 1 minute of centrifugation. The fluorescence signal values were read with Odyssey CLx.
ERK phosphorylation was calculated according to the following formula: […]
X: log value of compound concentration.
Y: average value of relative expression of p-ERK between replicate wells.

Data set [2] can be described thus: Pharmacokinetics of compounds in rats (oral). Format: in vivo, SD rats. Conditions: male SD rats. How it is done: Male SD rats were purchased from Shanghai SIPPR-Bk Lab Animal Co., Ltd. Each test compound was administered orally (3 rats per group) once to SD rats for pharmacokinetic study. The test compounds were prepared on the day of administration. The test compounds were suspended in 5% DMSO+95% saline, and then vortexed for 2 min and ultrasonicated for 5 min to prepare the administration system. The animals were fasted for 10-14 h before oral administration, and the feeding was resumed 4 h after administration. After oral administration by gavage, pharmacokinetic samples were collected from SD rats through the jugular vein. The collection time points were: before administration, 15 min, 30 min, 1 h, 2 h, 4 h, 6 h, 8 h and 24 h after administration. Three whole blood samples were collected at each time point, with a collection volume of about 0.2 mL, and anticoagulated with sodium heparin. After blood samples were collected, they were immediately placed on ice and centrifuged to separate plasma within 1 hour (centrifugation conditions: 6800 rpm, 6 min, 2-8° C.). The collected plasma was stored in a −80° C. refrigerator before analysis.

Where [3] appears, read: male, SD, rat, plasma, po, 100 mg/kg, 100 mg/kg, read-out: AUC.
Setting [4] is: male, SD, rat, plasma, po, 100 mg/kg, 100 mg/kg, read-out: Cmax.

The term IC50 denotes the concentration needed to halve the response being measured. For orientation: AUC means the area under the concentration-time curve, a measure of exposure. What is called Cmax is the highest concentration seen after dosing. `Oc1cc(-c2ncc3c(N4C[C@H]5CC[C@@H](C4)N5)nc(OCC45CCCN4C(c4ccc6c(c4)C4CCC6O4)CC5)nc3c2F)c2c(F)c(F)ccc2c1` (stereo partly drawn) [Example 153, 4-(4-((1R,5S)-3,8-diazabicyclo[3.2.1]octan-3-yl)-8-fluoro-2-((3-(1,2,3,4-tetrahydro-1,4-epoxynaphthalen-6-yl)tetrahydro-1H-pyrrolizin-7a(5H)-yl)methoxy)pyrido[4,3d]pyrimidin-7-yl)-5,6-difluoronaphthalen-2-ol]: in data set [1], the IC50 turned out to be 5.2 nM. In data set [2] (100 mg/kg), this molecule had an AUC of 458 ng·h/mL and a maximum concentration (Cmax) of 156 ng/mL.

For `Oc1cc(-c2ncc3c(N4CC5CCC(C4)N5)nc(OCC45CCCN4[C@@H](c4cc(F)c(F)c(F)c4)CC5)nc3c2F)c2c(F)c(F)ccc2c1` (mixture of isomers) [Example 222], the IC50 in data set [1] (Homo sapiens, AGS) was 1.1 nM. The Cmax in data set [2] (100 mg/kg) was 82 ng/mL. Further, the AUC in data set [2] (setting [3]) is 258 ng·h/mL.

On to `Oc1cc(-c2ncc3c(N4CC5CCC(C4)N5)nc(OCC45CCCN4C(c4ccc6c(c4)COCC6)CC5)nc3c2F)c2c(F)c(F)ccc2c1` (stereo not shown) [Example 187], for which the IC50 in data set [1] (Homo sapiens, AGS) worked out at 13 nM. For the same molecule, in data set [2] (setting [3]), the AUC turned out to be 567 ng·h/mL. Also, the Cmax in data set [2] (setting [4]) was determined as 109 ng/mL.

Regarding `CC1(C)OC(C)(C)c2cc(C3CCC4(COc5nc(N6C[C@H]7CC[C@@H](C6)N7)c6cnc(-c7cc(O)cc8ccccc78)c(F)c6n5)CCCN34)ccc21` (stereo partly drawn) [Example 149, 4-(4-((1R,5S)-3,8-diazabicyclo[3.2.1]octan-3-yl)-8-fluoro-2-((3-(1,1,3,3-tetramethyl-1,3-dihydroisobenzofuran-5-yl)tetrahydro-1H-pyrrolizin-7a(5H)-yl)methoxy)pyrido[4,3d]pyrimidin-7-yl)naphthalen-2-ol], in data set [1], the IC50 came out at 23 nM. In data set [2] (100 mg/kg), this molecule returned an exposure (AUC) of 1192 ng·h/mL and a peak concentration (Cmax) of 148 ng/mL.

As for `Oc1cc(-c2ncc3c(N4CC5CCC(C4)N5)nc(OCC45CCCN4C(c4ccc(Cl)c(C(F)(F)F)c4)CC5)nc3c2F)c2c(F)c(F)ccc2c1` (stereo not shown) [Example 227], the IC50 in data set [1] (Homo sapiens, AGS) was determined as 2.4 nM. Also, in data set [2] (setting [3]), the AUC turned out to be 245 ng·h/mL. The Cmax in data set [2] (setting [4]) was found to be 52 ng/mL.

For `CC1(C)OCc2ccc(C3CCC4(COc5nc(N6CC7CCC(C6)N7)c6cnc(-c7cc(O)cc8ccc(F)c(F)c78)c(F)c6n5)CCCN34)cc21` [Example 156, 4-(4-((1R,5S)-3,8-diazabicyclo[3.2.1]octan-3-yl)-2-((3-(3,3-dimethyl-1,3-dihydroisobenzofuran-5-yl)tetrahydro-1H-pyrrolizin-7a(5H)-yl)methoxy)-8-fluoropyridin[4,3-d]pyrimidin-7-yl)-5,6-difluoronaphthalen-2-ol], the IC50 in data set [1] (Homo sapiens, AGS) turned out to be 15 nM. The AUC in data set [2] (setting [3]) turned out to be 598 ng·h/mL. The maximum concentration (Cmax) in data set [2] (setting [4]) is 138 ng/mL.

With `Oc1cc(-c2ncc3c(N4C[C@H]5CC[C@@H](C4)N5)nc(OCC45CCCN4C(c4ccc6c(c4)COC6)CC5)nc3c2F)c2ccccc2c1` (stereo partly drawn) [Example 43, 4-(4-((1R,5S)-3,8-diazabicyclo[3.2.1]octan-3-yl)-2-((3-(1,3-dihydroisobenzofuran-5-yl)tetrahydro-1H-pyrrolidin-7a(5H)-yl)methoxy)-8-fluoropyrido[4,3-d]pyrimidin-7-yl)naphthalen-2-ol], in data set [1], the IC50 was 41 nM. In data set [2] (100 mg/kg), this molecule returned an AUC of 537 ng·h/mL and a maximum concentration (Cmax) of 164 ng/mL.

`C#Cc1c(F)ccc2cc(O)cc(-c3ncc4c(N5CC6CCC(C5)N6)nc(OCC56CCCN5C(c5ccc(F)cc5)CC6)nc4c3F)c12` (stereo not shown) [Example 188]: the IC50 in data set [1] (Homo sapiens, AGS) stood at 5.2 nM. For the same molecule, the AUC in data set [2] (setting [3]) came out at 862 ng·h/mL. Further, in data set [2] (setting [4]), the peak concentration (Cmax) turned out to be 149 ng/mL.

Take `Oc1cc(-c2ncc3c(N4CC5CCC(C4)N5)nc(OCC45CCCN4C(c4ccc(F)cc4)CC5)nc3c2F)c2c(F)c(F)ccc2c1` (stereo not shown) [Example 108]: the half-inhibitory concentration (IC50) in data set [1] turned out to be 14 nM. For the same molecule, the exposure (AUC) in data set [2] (setting [3]) came out at 2090 ng·h/mL. For the same molecule, the Cmax in data set [2] (setting [4]) worked out at 157 ng/mL.

In the case of `CC1(C)OCc2cc(C3CCC4(COc5nc(N6C[C@H]7CC[C@@H](C6)N7)c6cnc(-c7cc(O)cc8ccc(F)c(F)c78)c(F)c6n5)CCCN34)ccc21` (stereo partly drawn) [Example 146, 4-(4-((1R,5S)-3,8-diazabicyclo[3.2.1]octan-3-yl)-2-((3-(1,1-dimethyl-1,3-dihydroisobenzofuran-5-yl)tetrahydro-1H-pyrrolizin-7a(5H)-yl)methoxy)-8-fluoropyrido[4,3-d]pyrimidin-7-yl)-5,6-difluoronaphthalen-2-ol], the IC50 in data set [1] (Homo sapiens, AGS) was 11 nM. Moreover, in data set [2] (setting [3]), the area under the curve (AUC) came out at 483 ng·h/mL. In data set [2] (setting [4]), the Cmax is 143 ng/mL.

On to `Oc1cc(-c2ncc3c(N4CC5CCC(C4)N5)nc(OCC45CCCN4C(c4cccc(F)c4)CC5)nc3c2F)c2c(F)c(F)ccc2c1` (stereo not shown) [Example 110], for which the IC50 in data set [1] (Homo sapiens, AGS) is 35 nM.

Take `Oc1cc(-c2ncc3c(N4CC5CCC(C4)N5)nc(OCC45CCCN4[C@@H](c4ccc(Cl)c(Cl)c4)CC5)nc3c2F)c2c(F)c(F)ccc2c1` (mixture of isomers) [Example 220]: the IC50 in data set [1] (Homo sapiens, AGS) turned out to be 3.2 nM. Also, the area under the curve (AUC) in data set [2] (setting [3]) was found to be 140 ng·h/mL. Besides, the highest concentration (Cmax) in data set [2] (setting [4]) worked out at 38 ng/mL.

Consider `CC1(C)OC(C)(C)c2cc([C@H]3CCC4(COc5nc(N6CC7CCC(C6)N7)c6cnc(-c7cc(O)cc8ccc(F)c(F)c78)c(F)c6n5)CCCN34)ccc21` (single isomer, unassigned) [Example 198], for which the IC50 in data set [1] (Homo sapiens, AGS) stood at 0.72 nM. Moreover, in data set [2] (setting [3]), the AUC came out at 219 ng·h/mL. The Cmax in data set [2] (setting [4]) was determined as 141 ng/mL.

`Oc1cc(-c2ncc3c(N4CC5CCC(C4)N5)nc(OCC45CCCN4C(c4ccc(F)cc4)CC5)nc3c2F)c2c(F)c(F)ccc2c1` (stereo not shown) [Example 194]: the half-inhibitory concentration (IC50) in data set [1] turned out to be 1.1 nM.

Consider `Oc1cc(-c2ncc3c(N4CC5CCC(C4)N5)nc(OCC45CCCN4[C@@H](c4ccc(F)cc4)CC5)nc3c2F)c2c(F)c(F)ccc2c1` (single isomer, unassigned) [Example 193], for which the IC50 in data set [1] (Homo sapiens, AGS) amounted to 9.1 nM.

`Oc1cc(-c2ncc3c(N4CC5CCC(C4)N5)nc(OCC45CCCN4[C@@H](c4ccc(C(F)(F)F)c(C(F)(F)F)c4)CC5)nc3c2F)c2c(F)c(F)ccc2c1` (mixture of isomers) [Example 219]: the IC50 in data set [1] (Homo sapiens, AGS) is 6.2 nM.

As to `C#Cc1c(F)ccc2cc(O)cc(-c3ncc4c(N5C[C@H]6CC[C@@H](C5)N6)nc(OCC56CCCN5C(c5ccc(OC)cc5)CC6)nc4c3F)c12` (stereo partly drawn) [Example 52, 4-(4-((1R,5S)-3,8-diazabicyclo[3.2.1]octan-3-yl)-8-fluoro-2-((3-(4-methoxyphenyl)tetrahydro-1H-pyrrolidin-7a(5H)-yl)methoxy)pyrido[4,3-d]pyrimidin-7-yl)-5-ethynyl-6-fluoronaphthalen-2-ol], the IC50 in data set [1] amounted to 6 nM.

Take “4-(4-((1R,5S)-3,8-diazabicyclo[3.2.1]octan-3-yl)-8-fluoro-2-((3-(4-methoxyphenyl)tetrahydro-1H-pyrrolidin-7a(5H)-yl)methoxy)pyrido[4,3-d]pyrimidin-7-yl)-5,6-difluoronaphthalen-2-ol [Example 34]”: the IC50 in data set [1] was 27 nM. Further, in data set [2] (10 mg/kg), the area under the curve (AUC) is 75 ng·h/mL and the Cmax was 25 ng/mL.

Take “4-(4-((1R,5S)-3,8-diazabicyclo[3.2.1]octan-3-yl)-2-((3-(1,3-dihydroisobenzofuran-5-yl-1,1,3,3-d4)tetrahydro-1H-pyrrolizin-7a(5H)-yl)methoxy)-8-fluoropyridin[4,3-d]pyrimidin-7-yl)naphthalen-2-ol [Example 148]”: the IC50 in data set [1] came to 12 nM.

Take `CC1(C)OC(C)(C)c2cc([C@H]3CCC4(COc5nc(N6CC7CCC(C6)N7)c6cnc(-c7cc(O)cc8ccc(F)c(F)c78)c(F)c6n5)CCCN34)ccc21` (mixture of isomers) [Example 211]: in data set [1], the IC50 was determined as 0.96 nM. In addition, in data set [2] (100 mg/kg), the AUC came to 225 ng·h/mL and the peak concentration (Cmax) worked out at 97 ng/mL.

With `COc1ccc(C2CCC3(COc4nc(N5CC6CCC(C5)N6)c5cnc(-c6cc(O)cc7ccc(F)c(F)c67)c(F)c5n4)CCCN23)cc1OC` (stereo not shown) [Example 113], the IC50 in data set [1] (Homo sapiens, AGS) turned out to be 15 nM.
